# In PubChem BioAssay AID1745844 (Carcinogenic Potency Database (CPDB), 2022):
# Values joined by “and” are separate entries in the source; they are usually repeats but may differ in a detail not shown here. Equal values may be shown once. Active and inactive are the calls of the source. How the calls were made is not given here.
# Test system: rodent lifetime carcinogenesis bioassay, tumor incidence TD50
# Assay: chronic cancer bioassays in animals – CPDB, compiled studies (AID 1745844)
# Conditions: in feed
smiles,measurement,setting,value
ClC1=C(Cl)[C@]2(Cl)[C@@H]3[C@@H]4C[C@@H]([C@H]5O[C@@H]45)[C@@H]3[C@@]1(Cl)C2(Cl)Cl,TD50,"hamster, strain Syrian Golden, females, site: any site (literature study), lesion: several types, types named in the paper, dosed 100 weeks, study length 114 weeks",355 mg/kg/day (inactive)
same,TD50,"hamster, strain Syrian Golden, females, site: liver, lesion: hepatoma, dosed 100 weeks, study length 114 weeks",176 mg/kg/day (inactive)
same,carcinogen call,"hamster, strain Syrian Golden, females, site: lung, lesion: one or several types, types not named, dosed 100 weeks, study length 114 weeks",negative (inactive)
same,TD50,"hamster, strain Syrian Golden, males, site: any site (literature study), lesion: several types, types named in the paper, dosed 114 weeks, study length 114 weeks",69.9 mg/kg/day (inactive)
same,TD50,"hamster, strain Syrian Golden, males, site: liver, lesion: hepatoma, dosed 114 weeks, study length 114 weeks",198 mg/kg/day (inactive)
same,TD50,"hamster, strain Syrian Golden, males, site: lung, lesion: adenoma, dosed 114 weeks, study length 114 weeks",732 mg/kg/day (inactive)
same,carcinogen call,"mouse, strain B6C3F1, females, site: any site (literature study), lesion: several types, types named in the paper, dosed 80 weeks, study length 91 weeks",negative (inactive)
same,TD50,"mouse, strain B6C3F1, females, site: liver, lesion: hepatocellular adenoma + hepatocellular carcinoma + neoplastic nodule, dosed 80 weeks, study length 91 weeks",1.09 mg/kg/day
same,TD50,"mouse, strain B6C3F1, females, site: lung, lesion: alveolar/bronchiolar adenoma + alveolar/bronchiolar carcinoma, dosed 80 weeks, study length 91 weeks",5.05 mg/kg/day
same,TD50,"mouse, strain B6C3F1, males, site: any site (literature study), lesion: several types, types named in the paper, dosed 80 weeks, study length 91 weeks",1.06 mg/kg/day (inactive)
same,TD50,"mouse, strain B6C3F1, males, site: liver, lesion: hepatocellular adenoma + hepatocellular carcinoma + neoplastic nodule, dosed 80 weeks, study length 91 weeks",1.04 mg/kg/day
same,TD50,"mouse, strain B6C3F1, males, site: liver, lesion: hepatocellular carcinoma, dosed 80 weeks, study length 89 weeks",1.35 mg/kg/day
same,TD50,"mouse, strain B6C3F1, males, site: lung, lesion: alveolar/bronchiolar adenoma + alveolar/bronchiolar carcinoma, dosed 80 weeks, study length 91 weeks",24.7 mg/kg/day
same,TD50,"mouse, strain C3HeB/Fe, both sexes, site: any site (literature study), lesion: benign tumor, dosed 104 weeks, study length 104 weeks",3.1 mg/kg/day
same,TD50,"mouse, strain C3HeB/Fe, both sexes, site: liver, lesion: hepatocellular adenoma, dosed 104 weeks, study length 104 weeks",4.09 mg/kg/day
same,TD50,"mouse, strain C3HeB/Fe, both sexes, site: liver, lesion: hepatocellular carcinoma, dosed 104 weeks, study length 104 weeks",167 mg/kg/day
same,TD50,"mouse, strain C3HeB/Fe, both sexes, site: liver, lesion: hepatoma, dosed 104 weeks, study length 104 weeks",3.08 mg/kg/day
same,TD50,"mouse, strain CF-1, females, site: liver, lesion: liver-cell tumor, type B, dosed 90 weeks, study length 90 weeks",2.59 mg/kg/day
same,TD50,"mouse, strain CF-1, females, site: liver, lesion: liver-cell tumor, type B, dosed 106 weeks, study length 106 weeks",3.96 mg/kg/day
same,TD50,"mouse, strain CF-1, females, site: liver, lesion: liver-cell tumor, type B, dosed 108 weeks, study length 128 weeks",9.72 mg/kg/day
same,TD50,"mouse, strain CF-1, females, site: liver, lesion: liver-cell tumor, type B, dosed 122 weeks, study length 138 weeks",1.96 mg/kg/day
same,TD50,"mouse, strain CF-1, females, site: liver, lesion: liver-cell tumor, type B, dosed 128 weeks, study length 128 weeks",12.1 mg/kg/day
same,TD50,"mouse, strain CF-1, females, site: liver, lesion: liver-cell tumor, dosed 110 weeks, study length 110 weeks",1.59 mg/kg/day
same,TD50,"mouse, strain CF-1, females, site: liver, lesion: several types, types named in the paper, dosed 90 weeks, study length 90 weeks",1.05 mg/kg/day
same,TD50,"mouse, strain CF-1, females, site: liver, lesion: several types, types named in the paper, dosed 106 weeks, study length 106 weeks",1.16 mg/kg/day
same,TD50,"mouse, strain CF-1, females, site: liver, lesion: several types, types named in the paper, dosed 108 weeks, study length 128 weeks",1.49 mg/kg/day
same,TD50,"mouse, strain CF-1, females, site: liver, lesion: several types, types named in the paper, dosed 110 weeks, study length 110 weeks",0.567 mg/kg/day
same,TD50,"mouse, strain CF-1, females, site: liver, lesion: several types, types named in the paper, dosed 122 weeks, study length 138 weeks",0.642 mg/kg/day
same,TD50,"mouse, strain CF-1, females, site: liver, lesion: several types, types named in the paper, dosed 128 weeks, study length 128 weeks",3.11 mg/kg/day
same,carcinogen call,"mouse, strain CF-1, females, site: lung, lesion: adenoma, dosed 90 weeks, study length 90 weeks",negative (inactive)
same,TD50,"mouse, strain CF-1, females, site: lung, lesion: adenoma, dosed 106 weeks, study length 106 weeks",5.69 mg/kg/day (inactive)
same,carcinogen call,"mouse, strain CF-1, females, site: lung, lesion: adenoma, dosed 108 weeks, study length 128 weeks",negative (inactive)
same,TD50,"mouse, strain CF-1, females, site: lung, lesion: adenoma, dosed 122 weeks, study length 138 weeks",0.606 mg/kg/day (inactive)
same,carcinogen call,"mouse, strain CF-1, females, site: lung, lesion: adenoma, dosed 128 weeks, study length 128 weeks",negative (inactive)
same,carcinogen call,"mouse, strain CF-1, females, site: lung, lesion: carcinoma, dosed 90 weeks, study length 90 weeks",negative (inactive)
same,carcinogen call,"mouse, strain CF-1, females, site: lung, lesion: carcinoma, dosed 106 weeks, study length 106 weeks",negative (inactive)
same,carcinogen call,"mouse, strain CF-1, females, site: lung, lesion: carcinoma, dosed 108 weeks, study length 128 weeks",negative (inactive)
same,TD50,"mouse, strain CF-1, females, site: lung, lesion: carcinoma, dosed 122 weeks, study length 138 weeks",1.78 mg/kg/day (inactive)
same,carcinogen call,"mouse, strain CF-1, females, site: lung, lesion: carcinoma, dosed 128 weeks, study length 128 weeks",negative (inactive)
same,carcinogen call,"mouse, strain CF-1, females, site: lung, lesion: one or several types, types not named, dosed 110 weeks, study length 110 weeks",negative (inactive)
same,TD50,"mouse, strain CF-1, males, site: liver, lesion: liver-cell tumor, type B, dosed 110 weeks, study length 124 weeks",4.02 mg/kg/day
same,TD50,"mouse, strain CF-1, males, site: liver, lesion: liver-cell tumor, type B, dosed 112 weeks, study length 128 weeks",4.66 mg/kg/day
same,TD50,"mouse, strain CF-1, males, site: liver, lesion: liver-cell tumor, type B, dosed 120 weeks, study length 134 weeks",1.68 mg/kg/day
same,TD50,"mouse, strain CF-1, males, site: liver, lesion: liver-cell tumor, type B, dosed 128 weeks, study length 128 weeks",5.12 mg/kg/day and 6.58 mg/kg/day
same,TD50,"mouse, strain CF-1, males, site: liver, lesion: liver-cell tumor, dosed 110 weeks, study length 110 weeks",1.28 mg/kg/day
same,carcinogen call,"mouse, strain CF-1, males, site: liver, lesion: several types, types named in the paper, dosed 110 weeks, study length 110 weeks",positive
same,TD50,"mouse, strain CF-1, males, site: liver, lesion: several types, types named in the paper, dosed 110 weeks, study length 124 weeks",0.713 mg/kg/day
same,TD50,"mouse, strain CF-1, males, site: liver, lesion: several types, types named in the paper, dosed 112 weeks, study length 128 weeks",1.12 mg/kg/day
same,TD50,"mouse, strain CF-1, males, site: liver, lesion: several types, types named in the paper, dosed 120 weeks, study length 134 weeks",0.547 mg/kg/day
same,TD50,"mouse, strain CF-1, males, site: liver, lesion: several types, types named in the paper, dosed 128 weeks, study length 128 weeks",0.913 mg/kg/day and 1.91 mg/kg/day
same,carcinogen call,"mouse, strain CF-1, males, site: lung, lesion: adenoma, dosed 110 weeks, study length 124 weeks",negative (inactive)
same,carcinogen call,"mouse, strain CF-1, males, site: lung, lesion: adenoma, dosed 112 weeks, study length 128 weeks",negative (inactive)
same,TD50,"mouse, strain CF-1, males, site: lung, lesion: adenoma, dosed 120 weeks, study length 134 weeks",2.13 mg/kg/day (inactive)
same,carcinogen call,"mouse, strain CF-1, males, site: lung, lesion: adenoma, dosed 128 weeks, study length 128 weeks",negative (inactive)
same,carcinogen call,"mouse, strain CF-1, males, site: lung, lesion: carcinoma, dosed 110 weeks, study length 124 weeks",negative (inactive)
same,carcinogen call,"mouse, strain CF-1, males, site: lung, lesion: carcinoma, dosed 112 weeks, study length 128 weeks",negative (inactive)
same,TD50,"mouse, strain CF-1, males, site: lung, lesion: carcinoma, dosed 120 weeks, study length 134 weeks",3.71 mg/kg/day (inactive)
same,carcinogen call,"mouse, strain CF-1, males, site: lung, lesion: carcinoma, dosed 128 weeks, study length 128 weeks",negative (inactive)
same,carcinogen call,"mouse, strain CF-1, males, site: lung, lesion: one or several types, types not named, dosed 110 weeks, study length 110 weeks",negative (inactive)
same,carcinogen call,"rat, strain CFE, females, site: any site (literature study), lesion: several types, types named in the paper, dosed 104 weeks, study length 104 weeks",negative (inactive)
same,TD50,"rat, strain CFE, males, site: any site (literature study), lesion: several types, types named in the paper, dosed 104 weeks, study length 104 weeks",2.01 mg/kg/day (inactive)
same,TD50,"rat, strain Fischer 344, females, site: any site (literature study), lesion: several types, types named in the paper, dosed 105 weeks, study length 104 weeks",489 mg/kg/day (inactive)
same,TD50,"rat, strain Fischer 344, males, site: any site (literature study), lesion: several types, types named in the paper, dosed 105 weeks, study length 104 weeks",7.28 mg/kg/day (inactive)
same,TD50,"rat, strain Not specified, females, site: any site (literature study), lesion: one or several types, types not named, dosed 104 weeks, study length 104 weeks",57.2 mg/kg/day (inactive)
same,TD50,"rat, strain Not specified, males, site: any site (literature study), lesion: one or several types, types not named, dosed 104 weeks, study length 104 weeks",40.5 mg/kg/day (inactive)
same,carcinogen call,"rat, strain Osborne-Mendel, both sexes, site: any site (literature study), lesion: several types, types named in the paper, dosed 104 weeks, study length 104 weeks",positive
same,TD50,"rat, strain Osborne-Mendel, females, site: adrenal gland, lesion: cortical adenoma + cortical carcinoma, dosed 90 weeks, study length 109 weeks",4.42 mg/kg/day (inactive)
same,carcinogen call,"rat, strain Osborne-Mendel, females, site: any site (literature study), lesion: several types, types named in the paper, dosed 90 weeks, study length 110 weeks",negative (inactive)
same,carcinogen call,"rat, strain Osborne-Mendel, females, site: any site (literature study), lesion: several types, types named in the paper, dosed 121 weeks, study length 126 weeks",negative (inactive)
same,TD50,"rat, strain Osborne-Mendel, females, site: liver, lesion: hepatocellular adenoma + hepatocellular carcinoma + neoplastic nodule, dosed 90 weeks, study length 110 weeks",38.4 mg/kg/day
same,carcinogen call,"rat, strain Osborne-Mendel, females, site: liver, lesion: one or several types, types not named, dosed 121 weeks, study length 126 weeks",negative (inactive)
same,TD50,"rat, strain Osborne-Mendel, males, site: any site (literature study), lesion: several types, types named in the paper, dosed 90 weeks, study length 110 weeks",3.34 mg/kg/day (inactive)
same,carcinogen call,"rat, strain Osborne-Mendel, males, site: any site (literature study), lesion: several types, types named in the paper, dosed 126 weeks, study length 126 weeks",negative (inactive)
same,carcinogen call,"rat, strain Osborne-Mendel, males, site: liver, lesion: hemangioma, dosed 126 weeks, study length 126 weeks",negative (inactive)
